Test results from US10633348B2, “Methods to treat lymphoplasmacytic lymphoma” (Dana-Farber Cancer Institute, Inc., priority 2013, dated 2020).

How the values were obtained:
[1] = system: HCK; type: biochemical; conditions: read-out: HCK IC50 (nM) Inv
Description: The in vitro activity of the compounds described herein in inhibiting TAK1, HCK and other kinases were obtained using an Invitrogen Select Screening assay as known in the art. The IC50 values determined from this assay are shown below.

[2] = system: BCWM.1; experiment: CellTiter-Glo cell viability assay; type: cell-based
Method: (§1) CellTiter-Glo® Luminescent cell viability assay (Promega) was used to assess cell survival following treatment with the compounds described. Cells were seeded into 384 well plates with the EL406 Combination Washer Dispenser (BioTek Instruments, Inc.) and the compounds were injected into the cells culture media with the JANUS Automated Workstation (PerkinElmer Inc.). Cells were treated with a series diluted inhibitors (20˜0.04 μM) for 72 hours at 37° C. Luminescent measurement is performed using the 2104 Envision® Multilabel Reader (PerkinElmer Inc.).

[3] = system: MWCL-1; experiment: CellTiter-Glo cell viability assay; type: cell-based
Method: as §1

[4] = system: OCI-Ly19; experiment: CellTiter-Glo cell viability assay; type: cell-based; conditions: Homo sapiens
Method: as §1

[5] = system: OCI-Ly3; experiment: CellTiter-Glo cell viability assay; type: cell-based
Method: as §1

[6] = system: Ramos; experiment: CellTiter-Glo cell viability assay; type: cell-based; conditions: Homo sapiens
Method: as §1

[7] = system: OCI-Ly7; experiment: CellTiter-Glo cell viability assay; type: cell-based; conditions: Homo sapiens, 72 hours
Method: as §1

[8] = system: TMD8; experiment: CellTiter-Glo cell viability assay; type: cell-based; conditions: Homo sapiens, 72 hours
Method: as §1

| SMILES | IC50 [1] [nM] | EC50 ([2]; 72 hours) [nM] | EC50 ([2]; BCWM1, 72 h) [nM] | EC50 ([3]; 72 h) [nM] | EC50 ([3]; 72 hours) [nM] | EC50 ([4]; OCI-LY19, 72 hours) [nM] | EC50 ([5]; 72 hours) [µM] | EC50 ([5]; Homo sapiens, OCI-Ly3, 72 h) [µM] | EC50 ([6]; 72 hours) [µM] | EC50 ([4]; OCI-LY19, 72 h) [nM] | EC50 ([6]; 72 h) [µM] | EC50 [7] [nM] | EC50 [8] [nM] |
| --- | --- | --- | --- | --- | --- | --- | --- | --- | --- | --- | --- | --- | --- |
| CCN1CCN(Cc2ccc(NC(=O)c3ccc(C)c(Oc4cc(NNC(C)=O)ncn4)c3)cc2C(F)(F)F)CC1 [(A-9), 3-((6-(2-acetylhydrazinyl)pyrimidin-4-yl)oxy)-N-(4-((4-ethylpiperazin-1-yl)methyl)-3-(trifluoromethyl)phenyl)-4-methylbenzamide] | > 10000 | 6460 | 10800 | 18700 | > 20000 | > 20000 | > 20 | 19.6 | > 20 |  |  |  |  |
| C=CC(=O)NNc1cc(Oc2cc(C(=O)Nc3ccc(CN4CCN(CC)CC4)c(C(F)(F)F)c3)ccc2C)ncn1 [(A-18)] |  | 3750 | 1980 | 4090 | 6740 |  |  |  |  | 2780 | 7.24 |  |  |
| CCN1CCN(Cc2ccc(NC(=O)c3ccc(C)c(Oc4cc(Nc5cn[nH]c5)ncn4)c3)cc2C(F)(F)F)CC1 [(A-7), 3-((6-((1H-pyrazol-4-yl)amino)pyrimidin-4-yl)oxy)-N-(4-((4-ethylpiperazin-1-yl)methyl)-3-(trifluoromethyl)phenyl)-4-methylbenzamide] |  |  | 48 | 71 |  |  |  | 4 |  | 192 | 3.02 |  |  |
| CCN1CCN(Cc2ccc(NC(=O)c3ccc(C)c(Oc4ccnc(Nc5cnoc5)n4)c3)cc2C(F)(F)F)CC1 [(A-15), N-(4-((4-ethylpiperazin-1-yl)methyl)-3-(trifluoromethyl)phenyl)-3-((2-(isoxazol-4-ylamino)pyrimidin-4-yl)oxy)-4-methylbenzamide] |  |  | 185 | 718 |  |  |  |  |  | 307 | 4.68 | 786 | 392 |
| CCN1CCN(Cc2ccc(NC(=O)c3ccc(C)c(Oc4cc(NC5COC5)ncn4)c3)cc2C(F)(F)F)CC1 [(A-13), N-(4-((4-ethylpiperazin-1-yl)methyl)-3-(trifluoromethyl)phenyl)-4-methyl-3-((6-(oxetan-3-ylamino)pyrimidin-4-yl)oxy)benzamide] |  |  |  | 1760 | 2860 |  | 1.73 | 1.2 |  | 2280 | 3.26 |  |  |
| Cc1ccc(C(=O)Nc2cccc(C(C)(C)C#N)c2)cc1Oc1ncnc2[nH]ccc12 [(I-11), 3-((7H-pyrrolo[2,3-d]pyrimidin-4-yl)oxy)-N-(3-(2-cyanopropan-2-yl)phenyl)-4-methylbenzamide] |  |  | 4950 | 1440 |  |  |  | 9.69 | 3.89 |  |  | 1120 | 3460 |
| CCC(=O)Nc1cc(Oc2cc(C(=O)Nc3ccc(CN4CCN(CC)CC4)c(C(F)(F)F)c3)ccc2C)ncn1 [(A-2), N-(4-((4-ethylpiperazin-1-yl)methyl)-3-(trifluoromethyl)phenyl)-4-methyl-3-((6-propionamidopyrimidin-4-yl)oxy)benzamide] |  |  | 42 | 1350 |  |  |  | 2.96 |  | 1750 | 5.34 |  |  |
| CCN1CCN(Cc2ccc(NC(=O)c3ccc(C)c(Oc4cc(NC5CNC5)ncn4)c3)cc2C(F)(F)F)CC1 [(A-10), 3-((6-(azetidin-3-ylamino)pyrimidin-4-yl)oxy)-N-(4-((4-ethylpiperazin-1-yl)methyl)-3-(trifluoromethyl)phenyl)-4-methylbenzamide] | > 10000 |  |  | 24800 | > 20000 | > 20000 |  |  | > 20 |  |  |  |  |
| CCN1CCN(Cc2ccc(NC(=O)c3ccc(C)c(Oc4cc(NC(=O)C5CC5)ncn4)c3)cc2C(F)(F)F)CC1 [(A-3), 3-((6-(cyclopropanecarboxamido)pyrimidin-4-yl)oxy)-N-(4-((4-ethylpiperazin-1-yl)methyl)-3-(trifluoromethyl)phenyl)-4-methylbenzamide] |  |  | 50 | 910 |  |  |  | 0.48 |  | 600 | 2.68 |  |  |
| CCN1CCN(Cc2ccc(NC(=O)c3ccc(C)c(Oc4cc(Nc5ccn(C)n5)ncn4)c3)cc2C(F)(F)F)CC1 [(A-12), N-(4-((4-ethylpiperazin-1-yl)methyl)-3-(trifluoromethyl)phenyl)-4-methyl-3-((6-((1-methyl-1H-pyrazol-3-yl)amino)pyrimidin-4-yl)oxy)benzamide] |  | 71 | 38 | 75 | 71 |  |  |  |  | 209 | 2.96 |  |  |
| CCN1CCN(Cc2ccc(NC(=O)c3ccc(C)c(Oc4cc(NN(C)C)ncn4)c3)cc2C(F)(F)F)CC1 [(A-11), 3-((6-(2,2-dimethylhydrazinyl)pyrimidin-4-yl)oxy)-N-(4-((4-ethylpiperazin-1-yl)methyl)-3-(trifluoromethyl)phenyl)-4-methylhenzamide] | > 10000 |  | 19700 | > 20000 |  | > 20000 |  | > 20 | > 20 |  |  |  |  |
| CCN1CCN(Cc2ccc(NC(=O)c3ccc(C)c(Oc4cc(Nc5ccn[nH]5)ncn4)c3)cc2C(F)(F)F)CC1 [(A-6), 3-((6-((1H-pyrazol-5-yl)amino)pyrimidin-4-yl)oxy)-N-(4-((4-ethylpiperazin-1-yl)methyl)-3-(trifluoromethyl)phenyl)-4-methylbenzamide] |  |  | 86 | 118 |  |  |  | 4.77 |  | 302 | 3.08 |  |  |
| CCN1CCN(Cc2ccc(NC(=O)c3ccc(C)c(Oc4cc(Nc5cnoc5)ncn4)c3)cc2C(F)(F)F)CC1 [(A-16), N-(4-((4-ethylpiperazin-1-yl)methyl)-3-(trifluoromethyl)phenyl)-3-((6-(isoxazol-4-ylamino)pyrimidin-4-yl)oxy)-4-methylbenzamide] |  |  | 610 | 1710 |  | 777 |  |  | 1.31 |  |  | 1030 | 856 |
| CCN1CCN(Cc2ccc(NC(=O)c3ccc(C)c(Oc4cc(NC)ncn4)c3)cc2C(F)(F)F)CC1 [(A-1), N-(4-((4-ethylpiperazin-1-yl)methyl)-3-(trifluoromethyl)phenyl)-4-methyl-3-((6-(methylamino)pyrimidin-4-yl)oxy)benzamide] | 275 |  | 1720 | 3990 |  | 4980 |  | 11.5 | 9.48 |  |  |  |  |
